molecular target: BRD4 protein (Homo sapiens, UniProt O60885); assay: FRET assay, half maximal inhibitory concentration (IC50); assay type: binding; conditions: BRD4 protein 50 nM, Biotin-H4KAc4 peptide 12.5 nM; List of Classification
How it was run: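 Acetylated histone H4 peptide binding (biotin-H4KAc4, 12.5 nM final) to BRD4 (50 nM final) detected by TR-FRET between streptavidin cryptate (2.4 nM) and GST-XL665 antibody (10 nM) in KF/BSA. Buffer: HEPES pH 7.5, NaCl, CHAPS. Compound dilutions from 50 μM in 12.5% DMSO were preincubated with protein for 30 min. Variable-slope IC50.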

Structure (SMILES) | IC50 [nM]
Cc1cc(O)nc2ccc(NC(=O)c3cc(C#N)cnc3N3CCOCC3)cc12 [Compound-183, 5-cyano-N-(2-hydroxy-4-methylquinolin-6-yl)-2-morpholinonicotinamide] | 500 to 1000
Cc1cc(O)nc2ccc(NC(=O)c3cc(Br)cnc3N3CCC(F)C3)cc12 (stereo not drawn) [Compound-184, 5-bromo-2-(3-fluoropyrrolidin-1-yl)-N-(2-hydroxy-4-methylquinolin-6-yl) nicotinamide] | 500 to 1000
Cc1cc(O)nc2ccc(NC(=O)c3cc(N4CCN(C)CC4)cnc3N3CCOCC3)cc12 [Compound-185, N-(2-hydroxy-4-methylquinolin-6-yl)-5-(4-methylpiperazin-1-yl)-2-morpholinonicotinamide] | < 200
Cc1cc(O)nc2ccc(NC(=O)c3cc(N4CCOCC4)cnc3N3CCOCC3)cc12 [Compound-186, N-(2-hydroxy-4-methylquinolin-6-yl)-2,5-dimorpholinonicotinamide] | < 200
Cc1cc2nc(O)cc(C)c2cc1NC(=O)c1cc(-c2c(C)noc2C)cnc1N1CCOCC1 [Compound-188, 5-(3,5-dimethylisoxazol-4-yl)-N-(2-hydroxy-4,7-dimethylquinolin-6-yl)-2-morpholinonicotinamide] | < 200
COc1cc(NC(=O)c2cc(-c3ccoc3)cnc2N2CCOCC2)cc2c(C)cc(O)nc12 [Compound-189, 5-(furan-3-yl)-N-(2-hydroxy-8-methoxy-4-methylquinolin-6-yl)-2-morpholinonicotinamide] | < 200
COc1cc2nc(O)cc(C)c2cc1NC(=O)c1cc(-c2ccoc2)cnc1N1CCOCC1 [Compound-190, 5-(furan-3-yl)-N-(2-hydroxy-7-methoxy-4-methylquinolin-6-yl)-2-morpholinonicotinamide] | 1000 to 10000
Cc1cc2nc(O)cc(C)c2cc1NC(=O)c1cc(-c2ccoc2)cnc1N1CCOCC1 [Compound-191, 5-(furan-3-yl)-N-(2-hydroxy-4,7-dimethylquinolin-6-yl)-2-morpholinonicotinamide] | < 200
Cc1cc2nc(O)cc(C)c2cc1NC(=O)c1cc(-c2nnn(C)n2)cnc1N1CCOCC1 [Compound-195, N-(2-hydroxy-4,7-dimethylquinolin-6-yl)-5-(2-methyl-2H-tetrazol-5-yl)-2-morpholinonicotinamide] | < 200
Cc1cc2nc(O)cc(C)c2cc1NC(=O)c1cc(-c2nnnn2C)cnc1N1CCOCC1 [Compound-196, N-(2-hydroxy-4,7-dimethylquinolin-6-yl)-5-(1-methyl-1H-tetrazol-5-yl)-2-morpholinonicotinamide] | > 10000
Cc1cc(O)nc2ccc(NC(=O)c3cc(C#N)ncc3N3CCC(F)C3)cc12 (stereo not drawn) [Compound-197, 2-cyano-5-(3-fluoropyrrolidin-1-yl)-N-(2-hydroxy-4-methylquinolin-6-yl) isonicotinamide] | 500 to 1000
Cc1cc(O)nc2ccc(NC(=O)c3cc(S(=O)(=O)N(C)C)cnc3N3CCC(F)C3)cc12 (stereo not drawn) [Compound-199, 5-(N,N-dimethylsulfamoyl)-2-(3-fluoropyrrolidin-1-yl)-N-(2-hydroxy-4-methylquinolin-6-yl)nicotinamide] | < 200
Cc1cc(-c2cnc(N3CCOCC3)c(C(=O)Nc3cc4c(C)cc(O)nc4cc3C)c2)on1 [Compound-200, N-(2-hydroxy-4,7-dimethylquinolin-6-yl)-5-(3-methylisoxazol-5-yl)-2-morpholinonicotinamide] | 200 to 500
COc1cc2nc(O)cc(C)c2cc1NC(=O)c1cc(-c2nnc(C)o2)ccc1N1CCOCC1 [Compound-201, N-(2-hydroxy-7-methoxy-4-methylquinolin-6-yl)-5-(5-methyl-1,3,4-oxadiazol-2-yl)-2-morpholinobenzamide] | < 200
Cc1cc(O)nc2ccc(NC(=O)c3cc(C(N)=O)ncc3N3CCCC3)cc12 [Compound-202, N4-(2-hydroxy-4-methylquinolin-6-yl)-5-(pyrrolidin-1-yl)pyridine-2,4-dicarboxamide] | < 200

Source: patent publication US10752640B2, “Compounds active towards bromodomains” (NUEVOLUTION A/S, priority 2014, dated 2020)
